Experimental data taken from US20020137929A1, “1 - (3-heterocyclylphenyl) isothiourea, -isourea, -guanidine and -amidine herbicidal agents” (Intellectual Property Department, BASF Aktiengesellschaft, priority 1998, published 2002).

Tests used:
CASOB (Sicklepod) = assay: Postemergence herbicidal evaluation; type: in vivo, Cassia obtusifolia; settings: postemergence
Procedure, shortened: (§1)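 Young plants, roughly two weeks from seeding, receive the active ingredient as a sprayed dispersion (acetone/water 50/50, 0.5% TWEEN 20) at 40 psi. Doses span about 0.0156 to 0.500 kg/ha. A visual score from 0 to 9 compares treated with control plants four to five weeks on.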

GALAP (Galium) = assay: Postemergence herbicidal evaluation; type: in vivo, Galium aparine; settings: postemergence
Procedure, shortened: as §1

ZEAMX (Corn, Field) [1] = assay: Postemergence herbicidal evaluation; type: in vivo, Zea mays; settings: postemergence
Procedure, shortened: as §1

AMBEL (Ragweed, Common) = assay: Preemergence herbicidal evaluation; type: in vivo, Ambrosia artemisifolia; settings: rated 4-5 weeks after treatment
Procedure, shortened: (§2)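 Herbicidal effect scored visually, 0-9, at 4 to 5 weeks against a control; compound applied preemergence by aqueous acetone spray to seeded soil at about 0.0156 to 0.500 kg/ha.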

[2] = system: CHEAL (Lambsquarters, Common); assay: Preemergence herbicidal evaluation; type: in vivo, Chenopodium album; settings: rated 4-5 weeks after treatment
Procedure, shortened: as §2

[3] = system: IPOHE (Morningglory, Ivyleaf); assay: Preemergence herbicidal evaluation; type: in vivo, Ipomoea hederacea; settings: rated 4-5 weeks after treatment
Procedure, shortened: as §2

ORYSAT (Rice, Tebonnet) = assay: Preemergence herbicidal evaluation; type: in vivo, Oryza sativa, (L.) Tebonnet; settings: rated 4-5 weeks after treatment
Procedure, shortened: as §2

[4] = system: TRZAWR (Wheat, Winter, cv Riband); assay: Preemergence herbicidal evaluation; type: in vivo, Triticum aestivum; settings: rated 4-5 weeks after treatment
Procedure, shortened: as §2

ZEAMX (Corn, Field) [5] = assay: Preemergence herbicidal evaluation; type: in vivo, Zea mays; settings: rated 4-5 weeks after treatment
Procedure, shortened: as §2

[6] = system: ECHORC (Watergrass (Calif.)); assay: Preemergence weed control under flooded paddy conditions; type: in vivo, Echinochloa oryzoides; settings: rated 3-4 weeks after treatment
Procedure, shortened: (§3)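 Visual injury scored 0-9 against control three to four weeks post-treatment, greenhouse-grown. Application: acetone/water (50/50) solutions dosed directly into flood water (1.5-3 cm over silt loam, planted top 0.5 cm), roughly 0.0313 to 0.500 kg/ha active ingredient.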

CYPIR (Rice Flatsedge) = assay: as above; type: in vivo, Cyperus iria; settings: rated 3-4 weeks after treatment
Procedure, shortened: as §3

CYPSE (Flatsedge) [7] = assay: as above; type: in vivo, Cyperus serotinus; settings: rated 3-4 weeks after treatment
Procedure, shortened: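 Ratings on a 0-9 visual scale cover stand, vigor, malformation, size, chlorosis and overall appearance relative to a control, taken three to four weeks post-treatment. Application was into flood water over freshly sown silt loam at roughly 0.0313 to 0.500 kg/ha.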

[8] = system: ECHORC (Watergrass (Calif.)); assay: Postemergence weed control under flooded paddy conditions; type: in vivo, Echinochloa oryzoides; settings: postemergence weeds, 3-4 weeks after treatment
Procedure, shortened: (§4)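 Flood-water application, about 0.0313–0.500 kg/ha a.i. in aqueous/acetone 50/50 v/v; water depth 1.5–3 cm throughout. Weeds 3–5 cm, rice 1.5–2.5 leaf. Greenhouse; 0–9 visual rating vs control at 3–4 wk.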

CYPSE (Flatsedge) [9] = assay: as above; type: in vivo, Cyperus serotinus; settings: postemergence weeds, 3-4 weeks after treatment
Procedure, shortened: as §4

Molecule CCC1SC(=Nc2cc(-n3c(=O)cc(C(F)(F)F)n(C)c3=O)c(F)cc2Cl)N(C)C1=O (centres unmarked) [Compound 10] has a CASOB herbicidal rating (CASOB (Sicklepod); rate 0.0156 kg/ha) of 0.0, a CASOB herbicidal rating (CASOB (Sicklepod); rate 0.0313 kg/ha) of 0.0 and a CASOB herbicidal rating (CASOB (Sicklepod); rate 0.0625 kg/ha) of 0.5. For the same molecule, the CASOB herbicidal rating (CASOB (Sicklepod); rate 0.1250 kg/ha) was 3.0, the GALAP herbicidal rating (GALAP (Galium); rate 0.0156 kg/ha) was 1.0 and the GALAP herbicidal rating (GALAP (Galium); rate 0.0313 kg/ha) was 2.0. The GALAP herbicidal rating (GALAP (Galium); rate 0.0625 kg/ha) was 3.5, the GALAP herbicidal rating (GALAP (Galium); rate 0.1250 kg/ha) was 4.5 and the ZEAMX herbicidal rating (ZEAMX (Corn, Field) [1]; rate 0.0156 kg/ha) was 4.3. The ZEAMX herbicidal rating (ZEAMX (Corn, Field) [1]; rate 0.0313 kg/ha) was 5.3, the ZEAMX herbicidal rating (ZEAMX (Corn, Field) [1]; rate 0.0625 kg/ha) was 5.3 and the ZEAMX herbicidal rating (ZEAMX (Corn, Field) [1]; rate 0.1250 kg/ha) was 5.3. For the same molecule, the “AMBEL preemergence herbicidal rating” value (AMBEL (Ragweed, Common); rate 0.0156 kg/ha) was 0.3, the “AMBEL preemergence herbicidal rating” value (AMBEL (Ragweed, Common); rate 0.0313 kg/ha) was 0.3 and the “AMBEL preemergence herbicidal rating” value (AMBEL (Ragweed, Common); rate 0.0625 kg/ha) was 3.3. For the same molecule, the “AMBEL preemergence herbicidal rating” value (AMBEL (Ragweed, Common); rate 0.1250 kg/ha) was 4.7, the “AMBEL preemergence herbicidal rating” value (AMBEL (Ragweed, Common); rate 0.2500 kg/ha) was 6.3 and the “CHEAL preemergence herbicidal rating” value ([2]; rate 0.0156 kg/ha) was 9.0. The “CHEAL preemergence herbicidal rating” value ([2]; rate 0.0313 kg/ha) was 9.0, the “CHEAL preemergence herbicidal rating” value ([2]; rate 0.0625 kg/ha) was 9.0 and the “CHEAL preemergence herbicidal rating” value ([2]; rate 0.1250 kg/ha) was 9.0. The “CHEAL preemergence herbicidal rating” value ([2]; rate 0.2500 kg/ha) was 9.0, the “IPOHE preemergence herbicidal rating” value ([3]; rate 0.0156 kg/ha) was 2.0 and the “IPOHE preemergence herbicidal rating” value ([3]; rate 0.0313 kg/ha) was 3.0. For the same molecule, the “IPOHE preemergence herbicidal rating” value ([3]; rate 0.0625 kg/ha) was 5.3, the “IPOHE preemergence herbicidal rating” value ([3]; rate 0.1250 kg/ha) was 8.3 and the “IPOHE preemergence herbicidal rating” value ([3]; rate 0.2500 kg/ha) was 9.0. The “ORYSAT preemergence herbicidal rating” value (ORYSAT (Rice, Tebonnet); rate 0.0156 kg/ha) was 1.0, the “ORYSAT preemergence herbicidal rating” value (ORYSAT (Rice, Tebonnet); rate 0.0313 kg/ha) was 3.0 and the “ORYSAT preemergence herbicidal rating” value (ORYSAT (Rice, Tebonnet); rate 0.0625 kg/ha) was 4.5. For the same molecule, the “ORYSAT preemergence herbicidal rating” value (ORYSAT (Rice, Tebonnet); rate 0.1250 kg/ha) was 6.5, the “ORYSAT preemergence herbicidal rating” value (ORYSAT (Rice, Tebonnet); rate 0.2500 kg/ha) was 7.5 and the “TRZAWR preemergence herbicidal rating” value ([4]; rate 0.0156 kg/ha) was 1.0. The “TRZAWR preemergence herbicidal rating” value ([4]; rate 0.0313 kg/ha) was 3.5, the “TRZAWR preemergence herbicidal rating” value ([4]; rate 0.0625 kg/ha) was 5.5 and the “TRZAWR preemergence herbicidal rating” value ([4]; rate 0.1250 kg/ha) was 6.5. The “TRZAWR preemergence herbicidal rating” value ([4]; rate 0.2500 kg/ha) was 7.5, the “ZEAMX preemergence herbicidal rating” value (ZEAMX (Corn, Field) [5]; rate 0.0156 kg/ha) was 4.7 and the “ZEAMX preemergence herbicidal rating” value (ZEAMX (Corn, Field) [5]; rate 0.0313 kg/ha) was 6.7. The “ZEAMX preemergence herbicidal rating” value (ZEAMX (Corn, Field) [5]; rate 0.0625 kg/ha) was 7.0, the “ZEAMX preemergence herbicidal rating” value (ZEAMX (Corn, Field) [5]; rate 0.1250 kg/ha) was 7.3 and the “ZEAMX preemergence herbicidal rating” value (ZEAMX (Corn, Field) [5]; rate 0.2500 kg/ha) was 8.0. For the same molecule, the “Herbicidal rating ECHORC” value ([6]; 0.0313 kg/ha) was 0.0, the “Herbicidal rating ECHORC” value ([6]; 0.0625 kg/ha) was 1.0 and the “Herbicidal rating ECHORC” value ([6]; 0.1250 kg/ha) was 2.0. For the same molecule, the “Herbicidal rating ECHORC” value ([6]; 0.2500 kg/ha) was 2.0, the “Herbicidal rating CYPIR” value (CYPIR (Rice Flatsedge); 0.0313 kg/ha) was 0.0 and the “Herbicidal rating CYPIR” value (CYPIR (Rice Flatsedge); 0.0625 kg/ha) was 0.0. The “Herbicidal rating CYPIR” value (CYPIR (Rice Flatsedge); 0.1250 kg/ha) was 2.0, the “Herbicidal rating CYPIR” value (CYPIR (Rice Flatsedge); 0.2500 kg/ha) was 4.0 and the “Herbicidal rating CYPSE” value (CYPSE (Flatsedge) [7]; 0.0313 kg/ha) was 0.0. For the same molecule, the “Herbicidal rating CYPSE” value (CYPSE (Flatsedge) [7]; 0.0625 kg/ha) was 0.0, the “Herbicidal rating CYPSE” value (CYPSE (Flatsedge) [7]; 0.1250 kg/ha) was 0.0 and the “Herbicidal rating CYPSE” value (CYPSE (Flatsedge) [7]; 0.2500 kg/ha) was 0.0. For the same molecule, the “Herbicidal rating ECHORC” value ([8]; rate 0.0313 kg/ha) was 0.0, the “Herbicidal rating ECHORC” value ([8]; rate 0.0625 kg/ha) was 1.0 and the “Herbicidal rating ECHORC” value ([8]; rate 0.1250 kg/ha) was 2.0. The “Herbicidal rating ECHORC” value ([8]; rate 0.2500 kg/ha) was 2.0, the “Herbicidal rating CYPSE” value (CYPSE (Flatsedge) [9]; rate 0.0313 kg/ha) was 0.0 and the “Herbicidal rating CYPSE” value (CYPSE (Flatsedge) [9]; rate 0.0625 kg/ha) was 0.0. The “Herbicidal rating CYPSE” value (CYPSE (Flatsedge) [9]; rate 0.1250 kg/ha) was 0.0 and the “Herbicidal rating CYPSE” value (CYPSE (Flatsedge) [9]; rate 0.2500 kg/ha) was 0.0.
